Test results reported in ChEMBL document CHEMBL5236566, “Design and synthesis of novel pipernonaline derivatives as anti-austerity agents against human pancreatic cancer PANC-1 cells” (Bioorg Med Chem, 2022).
pIC50: −log10 of the molar value. Active and inactive are the calls of the source. The calls are words filed in the database; no cut-off is given here.

Assays:
PANC-1 [1] = assay: Cytotoxicity against human PANC-1 cells assessed as reduction in cell viability incubated for 24 hrs in nutrient-rich Dulbecco's modified Eagle's medium by WST-8 assay; assay type: functional, cell-based; conditions: PANC-1, 24 h
PANC-1 [2] = assay: Preferential cytotoxicity against human PANC-1 cells assessed as reduction in cell viability incubated for 24 hrs in nutrient-deprived medium by WST-8 assay; assay type: functional
[3] = Selectivity index, ratio of IC50 for cytotoxicity against human PANC-1 cells in nutrient-rich Dulbecco's modified Eagle's medium to PC50 for preferential cytotoxicity against human PANC-1 cells in nutrient-deprived medium; assay type: toxicity, cell-based
PANC-1 [4] = assay: Potency index, ratio of pipernonaline PC50 to test compound PC50 for Preferential cytotoxicity against human PANC-1 cells assessed as reduction in cell viability incubated for 24 hrs in nutrient-deprived medium by WST-8 assay; assay type: functional
[5] = target: RAC-alpha serine/threonine-protein kinase (Homo sapiens) (UniProt P31749); assay: Inhibition of Akt activation in human PANC-1 cells assessed as decrease in Akt phosphorylation at 5 uM incubated for 6 hrs in nutrient-deprived medium by Western blot analysis; assay type: cell-based
Sequence of RAC-alpha serine/threonine-protein kinase (Homo sapiens) (P31749 whole entry): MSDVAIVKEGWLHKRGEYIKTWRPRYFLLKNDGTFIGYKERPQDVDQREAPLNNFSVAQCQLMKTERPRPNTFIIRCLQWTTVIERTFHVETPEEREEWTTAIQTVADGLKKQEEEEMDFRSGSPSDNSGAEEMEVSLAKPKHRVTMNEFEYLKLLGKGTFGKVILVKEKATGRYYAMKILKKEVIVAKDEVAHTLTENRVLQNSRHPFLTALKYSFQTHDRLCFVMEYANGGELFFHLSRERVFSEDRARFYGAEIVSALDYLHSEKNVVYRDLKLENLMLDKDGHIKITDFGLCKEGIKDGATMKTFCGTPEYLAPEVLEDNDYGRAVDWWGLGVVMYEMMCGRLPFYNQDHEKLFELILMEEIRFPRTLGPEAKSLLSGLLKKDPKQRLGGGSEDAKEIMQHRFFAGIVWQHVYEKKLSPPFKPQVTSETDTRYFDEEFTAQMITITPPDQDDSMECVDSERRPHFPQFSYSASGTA

[6] = target: RAC-alpha serine/threonine-protein kinase (Homo sapiens) (UniProt P31749); assay: Inhibition of Akt activation in human PANC-1 cells assessed as effect on total Akt level at 1.25 to 5 uM incubated for 6 hrs in nutrient-deprived medium by Western blot analysis; assay type: cell-based; conditions: dose 1.25-5 µM
[7] = target: RAC-alpha serine/threonine-protein kinase (Homo sapiens) (UniProt P31749); assay: Inhibition of Akt activation in human PANC-1 cells assessed as effect on mTOR level at 1.25 to 5 uM incubated for 6 hrs in nutrient-deprived medium by Western blot analysis; assay type: cell-based; conditions: dose 1.25-5 µM
[8] = target: RAC-alpha serine/threonine-protein kinase (Homo sapiens) (UniProt P31749); assay: Inhibition of Akt activation in human PANC-1 cells assessed as effect on Atg3 level at 1.25 to 5 uM incubated for 6 hrs in nutrient-deprived medium by Western blot analysis; assay type: cell-based; conditions: dose 1.25-5 µM
[9] = target: RAC-alpha serine/threonine-protein kinase (Homo sapiens) (UniProt P31749); assay: Inhibition of Akt activation in human PANC-1 cells assessed as effect on Atg7 level at 1.25 to 5 uM incubated for 6 hrs in nutrient-deprived medium by Western blot analysis; assay type: cell-based; conditions: dose 1.25-5 µM
[10] = target: RAC-alpha serine/threonine-protein kinase (Homo sapiens) (UniProt P31749); assay: Inhibition of Akt activation in human PANC-1 cells assessed as upregulation of LC3-II level at 1.25 to 5 uM incubated for 6 hrs in nutrient-deprived medium by Western blot analysis; assay type: cell-based; conditions: dose 1.25-5 µM
PANC-1 [11] = assay: Inhibition of cell migration in human PANC-1 cells assessed as reduction in migration velocity at 20 uM measured every 15 min for 24 hrs in nutrient-rich Dulbecco's modified Eagle's medium by quantitative real-time cell migration assay; assay type: functional
PANC-1 [12] = assay: Inhibition of cell migration in human PANC-1 cells assessed as reduction in cell migration at 20 uM measured at 12 hrs in nutrient-rich Dulbecco's modified Eagle's medium by quantitative real-time cell migration assay relative to control; assay type: functional
PANC-1 [13] = assay: Inhibition of cell migration in human PANC-1 cells assessed as reduction in cell migration at 20 uM measured at 18 hrs in nutrient-rich Dulbecco's modified Eagle's medium by quantitative real-time cell migration assay relative to control; assay type: functional

SMILES | pIC50 (PANC-1 [1]) | PC50 (PANC-1 [2]) | selectivity ratio [3] | also measured
O=C(CCCCCCCCc1ccc(C(F)(F)F)cc1)N1CCCCC1 | 4.27 | 3.2 µM | 16.9 | –
O=C(/C=C/CCCCCCc1ccccc1)N1CCCC1 | < 4.00 | 4.1 µM | > 24.4 | –
O=C(/C=C/CCCCCCc1ccccc1)N[C@H]1CC[C@H](O)CC1 | < 4.00 | 52.1 µM | > 1.9 | –
O=C(CCCCCCCc1ccccc1)N1CCCCC1 | < 4.00 | 6.9 µM | > 14.5 | –
O=C(/C=C\CCCCCCc1ccccc1)N1CCCCC1 | < 4.00 | 2.3 µM | > 43.5 | –
O=C(CCCCCCCCc1ccc(Cl)cc1)N1CCCCC1 | 4.18 | 3.3 µM | 19.8 | –
O=C(CCCCCCCCc1cccc(Cl)c1)N1CCCCC1 | < 4.00 | 4.3 µM | > 23.3 | –
O=C(CCCCCCCCc1ccccc1Cl)N1CCCCC1 | < 4.00 | 3.6 µM | > 27.8 | –
S=C(CCCCCCCCc1ccccc1)N1CCCCC1 | < 4.00 | 2.2 µM | > 45.5 | –
O=C(CCCCCCCCc1ccc(O)cc1)N1CCCCC1 | < 4.00 | 7.8 µM | > 12.8 | –
O=C(/C=C/CCCCCCc1ccccc1)N1CCOCC1 | < 4.00 | 12.5 µM | > 8 | –
Nc1ccn([C@@H]2O[C@H](CO)[C@@H](O)C2(F)F)c(=O)n1 [GEMCITABINE] | < 4.00 | >100 µM | – | –
O=C(CCCCCCCCc1cccc(F)c1)N1CCCCC1 | < 4.00 | 6.6 µM | > 15.2 | –
O=C(CCCCCCCCc1ccc(F)cc1)N1CCCCC1 | 4.00 | 3.5 µM | 28.5 | –
O=C(/C=C/CCCCCCc1ccccc1)N1CCC(O)CC1 | < 4.00 | 9.4 µM | > 10.6 | –
O=C(/C=C/CCCCCCc1ccccc1)N1CCCCC1 | < 4.00 | 1.7 µM | > 58.8 | –
O=C(CCCCCCCCc1ccccc1F)N1CCCCC1 | 4.00 | 4.6 µM | 21.5 | –

SMILES | pIC50 (PANC-1 [1]) | PC50 (PANC-1 [2]) | selectivity ratio [3] | also measured
O=C(/C=C/CCCCC#Cc1ccccc1)N1CCCCC1 | < 4.00 | 2.2 µM | > 45.5 | –
Cc1ccc(CCCCCCCCC(=O)N2CCCCC2)cc1 | < 4.00 | 4.1 µM | > 24.4 | –
O=C(CCCCCCCCc1ccc2ccccc2c1)N1CCCCC1 | 4.06 | 6 µM | 14.5 | –
O=C(/C=C/CCCCCCc1ccccc1)N1CCCCCC1 | < 4.00 | 3.1 µM | > 32.3 | –
O=C(/C=C/CCCC/C=C/c1ccc2c(c1)OCO2)N1CCCCC1 [PIPERNONALINE] | 4.26 | 7.2 µM | 7.6 | –
O=C(CCCCCCCCCc1ccccc1)N1CCCCC1 | < 4.00 | 6.5 µM | > 15.4 | –
O=C(/C=C/CCCCCCc1ccccc1)NCc1ccccc1 | < 4.00 | 6.1 µM | > 16.4 | –
O=C(CCCCCCCCC1CCCCC1)N1CCCCC1 | < 4.00 | 12 µM | > 8.3 | –
O=C(CCCOCCCCc1ccccc1)N1CCCCC1 | < 4.00 | 26.6 µM | > 3.8 | –
O=C(/C=C/CCCCCCc1ccccc1)Nc1ccccc1 | < 4.00 | 8.8 µM | > 11.4 | –
O=C(CCCCCCCCc1ccccc1)N1CCCCC1 | < 4.00 | 1.08 µM | > 90.9 | Ratio (PANC-1 [4]): 7; inhibition [5]: Active; inhibition [6]: inactive; inhibition [7]: inactive; inhibition [8]: inactive; inhibition [9]: inactive; inhibition [10]: Active; Activity (PANC-1 [11]): 10.6 um2/s; inhibition at 20 µM (PANC-1 [12]): 50%; inhibition at 20 µM (PANC-1 [13]): 78%
O=C(CCCCCCc1ccccc1)N1CCCCC1 | < 4.00 | 7.1 µM | > 14.1 | –
O=C(CCCCCCCCCCc1ccccc1)N1CCCCC1 | < 4.00 | 6.6 µM | > 15.2 | –
COc1ccc(CCCCCCCCC(=O)N2CCCCC2)cc1 | 4.05 | 3.8 µM | 23.5 | –
N#Cc1ccc(CCCCCCCCC(=O)N2CCCCC2)cc1 | < 4.00 | 4 µM | > 25 | –
O=C(CCCCCC/C=C/c1ccccc1)N1CCCCC1 | < 4.00 | 9.6 µM | 7.4 | –
